ChEMBL document CHEMBL2151025, “Synthesis and structure-activity relationship of potent, selective and orally active anthranilamide-based factor Xa inhibitors: application of weakly basic sulfoximine group as novel S4 binding element” (Eur J Med Chem, 2012)
Active and inactive are the calls of the source. The calls are words filed in the database; no cut-off is given here.

Columns and labels:
Coagulation factor X [1] = molecular target: T1, Coagulation factor X (Homo sapiens, UniProt P00742); assay: Inhibition of human F10a using S-2765 as substrate at 0.1 uM after 45 mins
Plasma [2] = tested on: Plasma
Coagulation factor X [3] = molecular target: T1, Coagulation factor X; assay: Inhibition of human F10a using S-2765 as substrate after 45 mins
Plasma [4] = assay: Anticoagulant activity in rat plasma assessed as concentration required to double prothrombin time; type: functional
Rattus norvegicus [5] = assay: Antithrombotic activity in FeCl3-induced arterial thrombosis Wistar rat model assessed as reduction in thrombus weight at 10 mg/kg, po after 2 hrs; type: functional; set-up: scale not given: the % may be the effect or the level left
Rattus norvegicus [6] = assay: Antithrombotic activity in FeCl3-induced venous thrombosis Wistar rat model assessed as reduction in thrombus weight at 10 mg/kg, po after 2 hrs; type: functional; set-up: scale not given: the % may be the effect or the level left
Coagulation factor X [7] = molecular target: T1, Coagulation factor X; assay: Inhibition of F10a assessed as S-2765 substrate hydrolysis by microplate reader analysis
Prothrombin = Prothrombin (Homo sapiens, UniProt P00734); assay: Inhibition of thrombin assessed as S-2238 substrate hydrolysis by microplate reader analysis
Plasminogen = Plasminogen (Homo sapiens, UniProt P00747); assay: Inhibition of plasmin assessed as S-2302 substrate hydrolysis by microplate reader analysis
[8] = molecular target: Tissue-type plasminogen activator (Homo sapiens, UniProt P00750); assay: Inhibition of tPA assessed as S-2288 substrate hydrolysis by microplate reader analysis
[9] = Inhibition of trypsin assessed as S-2222 substrate hydrolysis by microplate reader analysis
[10] = molecular target: Vitamin K-dependent protein C (Homo sapiens, UniProt P04070); assay: Inhibition of activated protein C assessed as S-2366 substrate hydrolysis by microplate reader analysis
CYP3A4 = CYP3A4 (Homo sapiens, UniProt P08684); assay: Inhibition of human CYP3A4 at 10 uM; type: ADME
Rattus norvegicus [11] = assay: Antithrombotic activity in po dosed FeCl3-induced arterial thrombosis Wistar rat model assessed as reduction in thrombus weight after 2 hrs; type: functional, organism-based
Rattus norvegicus [12] = assay: Antithrombotic activity in po dosed FeCl3-induced venous thrombosis Wistar rat model assessed as reduction in thrombus weight after 2 hrs; type: functional, organism-based
Rattus norvegicus [13] = assay: Antithrombotic activity in FeCl3-induced arterial thrombosis Wistar rat model assessed as reduction in thrombus weight at 30 mg/kg, po after 2 hrs; type: functional; set-up: scale not given: the % may be the effect or the level left
Plasma [14] = assay: Plasma concentration in fasted Wistar rat at 30 mg/kg, po; type: ADME, organism-based; set-up: dose 30 mg/kg, route oral; settings: in vivo
Rattus norvegicus [15] = assay: Cmax in fasted Wistar rat assessed as 5-Chloro-N-(5-chloropyridin-2-yl)-2-(4-(N-(2-(ethyl-amino)acetyl)-S-methylsulfon imidoyl) benzamido) benzamide at 30 mg/kg, po; type: ADME, organism-based; set-up: dose 30 mg/kg, route oral; settings: in vivo
Rattus norvegicus [16] = assay: Tmax in fasted Wistar rat assessed as 5-Chloro-N-(5-chloropyridin-2-yl)-2-(4-(N-(2-(ethyl-amino)acetyl)-S-methylsulfon imidoyl) benzamido) benzamide at 30 mg/kg, po; type: ADME, organism-based; set-up: dose 30 mg/kg, route oral; settings: in vivo
Rattus norvegicus [17] = assay: Half life in fasted Wistar rat assessed as 5-Chloro-N-(5-chloropyridin-2-yl)-2-(4-(N-(2-(ethyl-amino)acetyl)-S-methylsulfon imidoyl) benzamido) benzamide at 30 mg/kg, po; type: ADME, organism-based; set-up: dose 30 mg/kg, route oral; settings: in vivo
Rattus norvegicus [18] = assay: AUC (0 to 24 hrs) in fasted Wistar rat assessed as 5-Chloro-N-(5-chloropyridin-2-yl)-2-(4-(N-(2-(ethyl-amino)acetyl)-S-methylsulfon imidoyl) benzamido) benzamide at 30 mg/kg, po; type: ADME, organism-based, Plasma; set-up: time < 24 hr, dose 30 mg/kg, route oral; settings: in vivo
Rattus norvegicus [19] = assay: Antithrombotic activity in FeCl3-induced venous thrombosis Wistar rat model assessed as reduction in thrombus weight at 30 mg/kg, po after 2 hrs; type: functional; set-up: scale not given: the % may be the effect or the level left

T1 sequence (P00742 41-179 limits assumed): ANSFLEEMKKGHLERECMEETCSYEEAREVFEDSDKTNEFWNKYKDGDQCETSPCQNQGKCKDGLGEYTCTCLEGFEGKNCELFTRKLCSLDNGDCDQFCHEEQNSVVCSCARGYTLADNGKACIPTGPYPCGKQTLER
T1 sequence (P00742 235-488 limits assumed): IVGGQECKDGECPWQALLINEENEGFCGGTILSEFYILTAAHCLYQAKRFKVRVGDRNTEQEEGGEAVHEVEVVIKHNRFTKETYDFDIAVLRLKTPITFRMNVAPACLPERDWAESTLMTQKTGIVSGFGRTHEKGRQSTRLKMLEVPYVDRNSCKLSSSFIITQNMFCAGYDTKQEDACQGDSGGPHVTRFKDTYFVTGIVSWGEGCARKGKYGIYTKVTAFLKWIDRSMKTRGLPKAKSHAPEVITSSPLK
Vitamin K-dependent protein C, sequence (P04070 43-197 limits assumed): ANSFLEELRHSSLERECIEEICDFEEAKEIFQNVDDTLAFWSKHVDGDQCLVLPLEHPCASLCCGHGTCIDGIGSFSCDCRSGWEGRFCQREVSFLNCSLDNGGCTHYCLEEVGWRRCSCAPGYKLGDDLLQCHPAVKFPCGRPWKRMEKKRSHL
Vitamin K-dependent protein C, sequence (P04070 212-461 limits assumed): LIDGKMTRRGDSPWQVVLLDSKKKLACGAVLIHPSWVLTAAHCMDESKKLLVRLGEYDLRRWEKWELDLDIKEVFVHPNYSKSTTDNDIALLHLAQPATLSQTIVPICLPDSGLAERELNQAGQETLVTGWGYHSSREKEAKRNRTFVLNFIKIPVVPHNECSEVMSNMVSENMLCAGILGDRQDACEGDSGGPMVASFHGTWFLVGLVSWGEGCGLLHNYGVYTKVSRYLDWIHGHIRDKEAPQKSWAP
Tissue-type plasminogen activator, sequence (P00750 whole entry): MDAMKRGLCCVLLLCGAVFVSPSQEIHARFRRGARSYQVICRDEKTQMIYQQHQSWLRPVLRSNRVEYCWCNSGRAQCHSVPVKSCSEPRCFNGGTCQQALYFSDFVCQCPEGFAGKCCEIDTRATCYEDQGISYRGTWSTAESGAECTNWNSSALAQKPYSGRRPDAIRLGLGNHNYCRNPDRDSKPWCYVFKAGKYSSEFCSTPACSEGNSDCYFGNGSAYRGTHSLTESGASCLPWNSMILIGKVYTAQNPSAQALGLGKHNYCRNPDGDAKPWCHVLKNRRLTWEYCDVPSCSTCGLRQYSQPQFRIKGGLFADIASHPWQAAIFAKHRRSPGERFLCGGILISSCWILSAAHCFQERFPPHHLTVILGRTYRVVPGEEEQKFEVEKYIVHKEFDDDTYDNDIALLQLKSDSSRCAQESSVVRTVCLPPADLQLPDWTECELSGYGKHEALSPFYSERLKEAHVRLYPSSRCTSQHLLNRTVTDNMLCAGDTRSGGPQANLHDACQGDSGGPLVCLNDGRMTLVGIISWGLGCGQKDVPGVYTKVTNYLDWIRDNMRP
CYP3A4, sequence (P08684 whole entry): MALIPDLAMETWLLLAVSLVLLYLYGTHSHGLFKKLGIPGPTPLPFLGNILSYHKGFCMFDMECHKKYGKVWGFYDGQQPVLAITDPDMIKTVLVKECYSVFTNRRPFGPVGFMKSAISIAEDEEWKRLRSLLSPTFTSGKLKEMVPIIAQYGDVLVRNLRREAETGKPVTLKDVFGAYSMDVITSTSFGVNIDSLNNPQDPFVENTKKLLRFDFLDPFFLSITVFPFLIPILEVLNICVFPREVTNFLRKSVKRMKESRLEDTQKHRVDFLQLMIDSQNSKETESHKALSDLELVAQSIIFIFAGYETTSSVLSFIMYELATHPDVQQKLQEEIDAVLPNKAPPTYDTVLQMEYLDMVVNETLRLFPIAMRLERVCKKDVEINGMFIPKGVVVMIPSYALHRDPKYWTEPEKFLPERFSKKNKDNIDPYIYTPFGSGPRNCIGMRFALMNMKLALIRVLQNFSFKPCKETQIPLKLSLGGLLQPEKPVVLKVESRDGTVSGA
Plasminogen, sequence (P00747 97-580 limits assumed): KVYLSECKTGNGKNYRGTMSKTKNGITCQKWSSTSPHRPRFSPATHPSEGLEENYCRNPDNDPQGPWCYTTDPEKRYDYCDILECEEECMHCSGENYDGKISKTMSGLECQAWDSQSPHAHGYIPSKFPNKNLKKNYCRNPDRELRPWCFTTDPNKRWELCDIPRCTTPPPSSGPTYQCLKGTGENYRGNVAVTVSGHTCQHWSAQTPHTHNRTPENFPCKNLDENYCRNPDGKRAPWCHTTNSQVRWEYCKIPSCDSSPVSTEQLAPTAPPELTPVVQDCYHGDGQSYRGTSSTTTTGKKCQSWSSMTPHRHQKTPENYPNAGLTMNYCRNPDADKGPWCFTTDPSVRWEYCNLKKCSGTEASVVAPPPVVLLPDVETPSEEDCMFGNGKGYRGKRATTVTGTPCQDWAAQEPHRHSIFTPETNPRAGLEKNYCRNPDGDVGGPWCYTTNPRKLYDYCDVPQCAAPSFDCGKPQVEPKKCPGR
Plasminogen, sequence (P00747 581-810 limits assumed): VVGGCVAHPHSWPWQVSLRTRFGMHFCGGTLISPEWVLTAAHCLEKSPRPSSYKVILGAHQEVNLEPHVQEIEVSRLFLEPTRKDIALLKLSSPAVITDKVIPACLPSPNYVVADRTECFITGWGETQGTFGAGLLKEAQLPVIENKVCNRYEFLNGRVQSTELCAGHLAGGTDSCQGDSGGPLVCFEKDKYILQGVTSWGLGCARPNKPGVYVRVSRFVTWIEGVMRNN

Compound	inhibition (Coagulation factor X [1])	2PT (Plasma [2])	2PT (Plasma [4])	other results
CS(=O)(=NC#N)c1ccc(C(=O)Nc2ccc(Cl)cc2C(=O)Nc2ccc(Cl)cn2)cc1 (configuration not stated)	76%	2.3 µM		
CS(=O)(=NC(=O)CN1CCC(O)CC1)c1ccc(C(=O)Nc2ccc(Cl)cc2C(=O)Nc2ccc(Cl)cn2)cc1 (configuration not stated)	69%	2.16 µM		
CC(C)NCC(=O)N=S(C)(=O)c1ccc(C(=O)Nc2ccc(Cl)cc2C(=O)Nc2ccc(Cl)cn2)cc1 (configuration not stated)	97%	0.95 µM	1.9 µM	IC50 (Coagulation factor X [3]): 4 nM
COc1cccc(C(=O)Nc2ccc(Cl)cn2)c1NC(=O)c1ccc(S(C)(=N)=O)cc1 (configuration not stated)	inactive			
CS(=O)(=NC(=O)CN1CCOCC1)c1ccc(C(=O)Nc2ccc(Cl)cc2C(=O)Nc2ccc(Cl)cn2)cc1 (configuration not stated)	45%			
CCN(CC)CC(=O)N=S(C)(=O)c1ccc(C(=O)Nc2ccc(OC)cc2C(=O)Nc2ccc(Cl)cn2)cc1 (configuration not stated)	56%	1.44 µM		
O=C(NC[C@H]1CN(c2ccc(N3CCOCC3=O)cc2)C(=O)O1)c1ccc(Cl)s1 [RIVAROXABAN]		0.39 µM	1.5 µM	Activity (Rattus norvegicus [5]): 50%; Activity (Rattus norvegicus [6]): 63%
CC(C)N(CC(=O)N=S(C)(=O)c1ccc(C(=O)Nc2ccc(Cl)cc2C(=O)Nc2ccc(Cl)cn2)cc1)C(C)C (configuration not stated)	79%	1.45 µM		
CCN(CC)CC(=O)N=S(C)(=O)c1ccc(C(=O)Nc2c(OC)cc(Cl)cc2C(=O)Nc2ccc(Cl)cn2)cc1 (configuration not stated)	97%	0.92 µM	1.3 µM	IC50 (Coagulation factor X [3]): 3.4 nM
CNCC(=O)N=S(C)(=O)c1ccc(C(=O)Nc2c(OC)cc(Cl)cc2C(=O)Nc2ccc(Cl)cn2)cc1 (configuration not stated)	92%	0.58 µM	0.9 µM	IC50 (Coagulation factor X [3]): 5.6 nM
CNCC(=O)N=S(C)(=O)c1ccc(C(=O)Nc2ccc(Cl)cc2C(=O)Nc2ccc(Cl)cn2)cc1 (configuration not stated)	93%	0.77 µM	1.7 µM	IC50 (Coagulation factor X [3]): 5.4 nM
CS(=O)(=NC(N)=O)c1ccc(C(=O)Nc2ccc(Cl)cc2C(=O)Nc2ccc(Cl)cn2)cc1 (configuration not stated)	41%	4.1 µM		
CS(=O)(=O)N=S(C)(=O)c1ccc(C(=O)Nc2ccc(Cl)cc2C(=O)Nc2ccc(Cl)cn2)cc1 (configuration not stated)	55%	2.6 µM		
CCN(CC)CC(=O)N=S(C)(=O)c1ccc(C(=O)Nc2ccc(Cl)cc2C(=O)Nc2ccc(Cl)cn2)cc1 (configuration not stated) [listing 1 of 2 here]		0.68 µM	0.8 µM	IC50 (Coagulation factor X [3]): 2.1 nM; Ki (Coagulation factor X [7]): 1.1 nM; Ki (Prothrombin): > 20000 nM; Ki (Plasminogen): > 20000 nM; Ki [8]: > 20000 nM; Ki [9]: > 20000 nM; Ki [10]: > 20000 nM; inhibition at 10 µM (CYP3A4): 18%
COCC(=O)N=S(C)(=O)c1ccc(C(=O)Nc2ccc(Cl)cc2C(=O)Nc2ccc(Cl)cn2)cc1 (configuration not stated)	48%	3 µM		
COc1cc(Cl)cc(C(=O)Nc2ccc(Cl)cn2)c1NC(=O)c1ccc(S(C)(=N)=O)cc1 (configuration not stated)	69%			
C[S+](=N)([O-])c1ccc(C(=O)Nc2ccc(Cl)cc2C(=O)Nc2ccc(Cl)cn2)cc1 (configuration not stated)	76%	7.2 µM		
CCN(CC)CC(=O)N=S(C)(=O)c1ccc(C(=O)Nc2ccc(Cl)cc2C(=O)Nc2ccc(Cl)cn2)cc1 (configuration not stated) [listing 2 of 2 here]	100%			Activity (Rattus norvegicus [11]): Dose-dependent effect; Activity (Rattus norvegicus [12]): Dose-dependent effect
CS(=O)(=NC(=O)CN1CCCC1)c1ccc(C(=O)Nc2ccc(Cl)cc2C(=O)Nc2ccc(Cl)cn2)cc1 (configuration not stated)	95%	0.46 µM	1.57 µM	IC50 (Coagulation factor X [3]): 3.2 nM

Compound	inhibition (Coagulation factor X [1])	2PT (Plasma [2])	2PT (Plasma [4])	other results
CCS(=N)(=O)c1ccc(C(=O)Nc2ccc(Cl)cc2C(=O)Nc2ccc(Cl)cn2)cc1 (configuration not stated)	inactive			
CN1CCCN(CC(=O)N=S(C)(=O)c2ccc(C(=O)Nc3ccc(Cl)cc3C(=O)Nc3ccc(Cl)cn3)cc2)CC1 (configuration not stated)	75%	1.82 µM		
CCNCC(=O)N=S(C)(=O)c1ccc(C(=O)Nc2c(OC)cc(Cl)cc2C(=O)Nc2ccc(Cl)cn2)cc1 (configuration not stated)	100%	0.74 µM	1.15 µM	IC50 (Coagulation factor X [3]): 2.4 nM
COc1ccc(NC(=O)c2ccc(S(C)(=N)=O)cc2)c(C(=O)Nc2ccc(Cl)cn2)c1 (configuration not stated)	42%			
CS(=O)(=NC(=O)CN1CCCCC1)c1ccc(C(=O)Nc2ccc(Cl)cc2C(=O)Nc2ccc(Cl)cn2)cc1 (configuration not stated)	97%	1.73 µM		
N=S(=O)(CCO)c1ccc(C(=O)Nc2ccc(Cl)cc2C(=O)Nc2ccc(Cl)cn2)cc1 (configuration not stated)	inactive			
CS(=N)(=O)Cc1ccc(C(=O)Nc2ccc(Cl)cc2C(=O)Nc2ccc(Cl)cn2)cc1 (configuration not stated)	inactive			
CS(=O)(=NC(=O)CNC1CCCC1)c1ccc(C(=O)Nc2ccc(Cl)cc2C(=O)Nc2ccc(Cl)cn2)cc1 (configuration not stated)	100%	2.26 µM		
COc1cc(Cl)cc(C(=O)Nc2ccc(Cl)cn2)c1NC(=O)c1ccc(S(C)(=O)=NC(=O)CN2CCCC2)cc1 (configuration not stated)	90%	0.53 µM	1.1 µM	IC50 (Coagulation factor X [3]): 6.4 nM
CCN(CC)CC(=O)N=S(C)(=O)c1ccc(C(=O)Nc2ccc(Cl)cc2C(=O)Nc2ccc(Cl)cn2)cc1.Cl (configuration not stated)				Activity (Rattus norvegicus [5]): 32%; Activity (Rattus norvegicus [13]): 71%; Cp (Plasma [14]): < 100 ng/mL; Cmax (Rattus norvegicus [15]): 3280 ng/mL; Tmax (Rattus norvegicus [16]): 2.75 h; t1/2 (Rattus norvegicus [17]): 4.79 h; AUC (Rattus norvegicus [18]): 43510 ng·h/mL; Activity (Rattus norvegicus [6]): 45%; Activity (Rattus norvegicus [19]): 81%
CCNCC(=O)N=S(C)(=O)c1ccc(C(=O)Nc2ccc(Cl)cc2C(=O)Nc2ccc(Cl)cn2)cc1 (configuration not stated)	100%	0.81 µM	2.1 µM	IC50 (Coagulation factor X [3]): 2.7 nM; Ki (Coagulation factor X [7]): 1.5 nM; Ki (Prothrombin): > 20000 nM; Ki (Plasminogen): > 20000 nM; Ki [8]: > 20000 nM; Ki [9]: > 20000 nM; Ki [10]: > 20000 nM; inhibition at 10 µM (CYP3A4): 27%
CS(=O)(=NC(=O)CN1CCC(C(N)=O)CC1)c1ccc(C(=O)Nc2ccc(Cl)cc2C(=O)Nc2ccc(Cl)cn2)cc1 (configuration not stated)	49%	2.54 µM		
CN(C)CC(=O)N=S(C)(=O)c1ccc(C(=O)Nc2ccc(Cl)cc2C(=O)Nc2ccc(Cl)cn2)cc1 (configuration not stated)	85%	1.2 µM	1.4 µM	IC50 (Coagulation factor X [3]): 9 nM
CS(=O)(=NCCN1CCCC1)c1ccc(C(=O)Nc2ccc(Cl)cc2C(=O)Nc2ccc(Cl)cn2)cc1 (configuration not stated)	74%	2.16 µM		
CCN(CC)CCN=S(C)(=O)c1ccc(C(=O)Nc2ccc(Cl)cc2C(=O)Nc2ccc(Cl)cn2)cc1 (configuration not stated)	77%	1.78 µM		
CC(=O)N=[S+](C)([O-])c1ccc(C(=O)Nc2ccc(Cl)cc2C(=O)Nc2ccc(Cl)cn2)cc1 (configuration not stated)	61%	7 µM		
CN1CCN(CC(=O)N=S(C)(=O)c2ccc(C(=O)Nc3ccc(Cl)cc3C(=O)Nc3ccc(Cl)cn3)cc2)CC1 (configuration not stated)	88%	2.03 µM		
CN(C)CCN=S(C)(=O)c1ccc(C(=O)Nc2ccc(Cl)cc2C(=O)Nc2ccc(Cl)cn2)cc1 (configuration not stated)	82%	1.14 µM	2.01 µM	IC50 (Coagulation factor X [3]): 11.6 nM
